Test system: trigeminal system
Test: Lateralization task (odorant applied into only one nostril)
Type: in vivo, human
Conditions: pure concentration; number of correct tasks out of 20; eucalyptol 4 trials, vanillin 6 trials
Source text: SMELL-S and SMELL-R were created with four different mixtures of 30 molecules drawn from a panel of 109 monomolecular, intensity-matched chemicals. These odorants were selected from stimuli utilized in previous psychophysical studies (21, 38). We used only molecules that minimally activated the trigeminal system, because such stimuli can be detected by anosmic subjects (39, 40). A characteristic of trigeminal activation by a molecule is a fresh, cold, burning, eucalyptus, pungent, or tickling sensation. We used a lateralization task in which an odorant is applied into only one nostril to assign a lateralization score to each molecule. It is possible to localize the stimulated nostril if it activates the trigeminal system. In contrast, it is much harder to localize an olfactory stimulus (41). Lateralization tasks were self-administered by one investigator. Two disposable squeeze bottles were placed in a device facilitating simultaneous squeezing and stimuli delivery in each nostril. Only one bottle was filled with an odor stimulus. The tip of each bottle was fitted with a foam piece that conformed to the investigator's nostril, and placed at the entrance of each nostril. The investigator squeezed both bottles simultaneously and attempted to localize which nostril had received the stimulus. After each task, the device was spun on a rotating platform to randomize the odor-stimulus side. […]

Row | Structure (SMILES) | lateralization score (median)
1 | CC12CCC(CC1)C(C)(C)O2 [eucalyptol] | 20
2 | COc1cc(C=O)ccc1O [vanillin] | 6.5

From US12364429B2, “Compositions and methods for a universal clinical test for olfactory dysfunction” (The Rockefeller University, priority 2017, dated 2025)
